From patent EP0847397B1, “WATER-SOLUBLE C-RING ANALOGUES OF 20 (S)-CAMPTOTHECIN” (DR. REDDY'S RESEARCH FOUNDATION, priority 1996, dated 1997)
In brackets after ≈: the same amount, converted by molar mass.

Experiments:
[1] = MTD in Swiss albino mice (single dose); settings: mouse, in vivo, 14 days observation
Description: 1. MTD in Swiss albino mice:
Each Swiss Albino mouse is injected with a single does of the test compound on a day designated as Day 1: Doses that were tested are 400, 200, 100, 50, 25, 12.5, 8.3, 6.25 and 3.13 mg/kg body weight. […] (As per the protocol followed by the U.S. National Cancer Institute)

[2] = Solubility by HPLC method; assay type: physicochemical; settings: aqueous buffer, 0.1M sodium acetate buffer pH 5.0, 24 hours, room temperature
Description: 4. Solubility by HPLC method:
Excess of compound was soaked in 0.5 ml of 0.1M sodium acetate buffer at pH 5.0 for 24 hours at room temperature. The solution was filtered through 0.45 micron PVDF syringe filter (Gelman Sciences). The filtrate was injected into HPLC at different volumes (10 & 20 µl). Chromatograms were recorded. Responses recorded were extrapolated from the calibration curve and the solubility of the compound was calculated. (J. Med. Chem., 1995; 38: 400)

[3] = Solubility by routine method; assay type: physicochemical; settings: deionized water, 37°C
Description: 5. Solubility by routine method:
Compound was suspended in 5 ml of deionized water and heated to 37°C. for 10 min. Then, the solution was filtered and the filtrate was evaporated to drying using methanol and the solid residue was weighed.

Pharmacokinetics at MTD = assay type: in vivo, Swiss albino mice; settings: mouse, ip, intraperitoneal, plasma; for AUC(0-t): DMSO:water (50:50), read-out: AUC0-1
Description: 3. Pharmacokinetics at MTD:
All studies were carried out in Swiss albino mice in the weight range 35-40 g. The animals were fasted overnight prior to dosage of the drug and were fed 3 hours after dosing. The animals were dosed intraperitonially as a solution in DMSO:water (50:50; v/v). Blood samples were drawn from orbital sinus at 1, 2, 4, 6 and 8 hours after administration of the dose into heparinized tubes, centrifuged at 13000 RPM for 10 min. Plasma samples were separated and analyzed by HPLC. To 50 µl of the sample, 100 µl of chilled acidified methanol was added and mixed to precipitate proteins. The sample was centrifuged at 13,000 RPM for 10 min. 100 µl of supernatant was made up to 200 µl with methanol:water (50:50; v/v) and 100 µl was injected on HPLC. Peak area of the drug was used for quantification. Calibration, control and recovery samples were prepared by spiking 50 µl of blank plasma with known amounts of the drug and processed in the same manner as the samples. (J. Natl. Cancer Inst., 1996; 88:817-824).

ACHN = test: In vitro activity after 1 hour exposure (Sulforhodamine B); assay type: cell-based; settings: Homo sapiens, 1 hour exposure then 48 hours drug-free
Description: (§1) 6. In vitro activity after 1 hour exposure:
(§2) Grow the cells in 15 ml of Complete Medium (RPM1-1640 with 10% Fetal bovine serum and 0.2% NaHCO3) for 3-5 days to obtain a cell number of 10^6 cells/flask. The medium is removed and the attached cells are washed with Phosphate Buffered Saline (PBS). 1 ml of 0.1% Trypsin-EDTA is added and incubated for 5 min at 37°C. Tap the flasks gently and add 5 ml of complete medium. Remove cell suspension and centrifuge at 2000 rpm for 5 min. Discard the supernatant and suspend the pellet in 5 ml of complete medium. Count the cell number in a haemocytometer. Dilute the cell suspension to 10,000 cells/100 µl in complete medium. Plate out 100 µl of cell suspension in each of 96 well microtitre plate and incubate for 24 hrs at 37°C. and 5% CO2. Terminate the reference blank (plated out separately) with 25 µl of 50% cold Trichloroacetic acid (TCA). Incubate for 1 hour at 4°C. Wash the plate (five times) with deionized water. Air dry and preserve the plate at 4°C. for determination of T0 value. Prepare suitable dilution of the test compound in complete medium and add 100 µl to each well to maintain the final concentration ranging between 10^-4M and 10^-8M. Incubate for 1 hr at 37°C. and 5% CO2. Centrifuge the microtitre plate at 1000 rpm for 5 min. Remove the supernatant. Wash the cells twice with 100 µl of PBS to remove the traces of test compound. Add 200 µl of complete medium to each well and incubate for 48 hours at 37°C. and 5% CO2. Terminate the cell growth with the addition of 50 µl of 50% cold TCA. Incubate the plate for 1 hr at 4°C. Wash the plates with deionized water (five times) and air dry. Add 100 µl of Sulforhodamine B solution (0.4% in 1% acetic acid) to each well. Keep at room temperature for 15 minutes. Wash (five times) with 1% acetic acid and air dry. Add 100 µl of 10mM Trizma base (Sigma), shake gently on plate shaker for 15 minutes and read the optical density at 490 nm in Spectrophotometric plate reader. (as per the protocol followed by the U.S. National Cancer Institute.

DU-145 = test: as above; assay type: cell-based; settings: Homo sapiens; DU-145, 1 hour exposure then 48 hours drug-free
Description: as §1, §2

HOP-62 = test: as above; assay type: cell-based; settings: Homo sapiens; HOP-62, 1 hour exposure then 48 hours drug-free
Description: as §1, §2

MCF-7/ADR = test: as above; assay type: cell-based; settings: Homo sapiens, NCI/ADR-RES, 1 hour exposure then 48 hours drug-free
Description: as §1, §2

OVCAR-8 = test: as above; assay type: cell-based; settings: Homo sapiens; OVCAR-8, 1 hour exposure then 48 hours drug-free
Description: as §1, §2

SF-268 = test: as above; assay type: cell-based; settings: Homo sapiens
Description: as §1, §2

UACC-62 = test: as above; assay type: cell-based; settings: Homo sapiens; UACC-62, 1 hour exposure then 48 hours drug-free
Description: as §1, §2

HT 29 = test: NCI in vitro 60 human tumor cell line assay; assay type: cell-based; settings: Homo sapiens, HT-29, 48 h, read-out: Total Growth Inhibition (TGI)
Description: (§3) Each test compound was screened against a battery of 60 human cell lines obtained from eight organs. In a typical procedure, the cell suspensions that were diluted according to the particular cell type and the expected target cell density (5000-40,000 cells per well based on cell growth characteristics) were added into 96-well microtiter plates. Inoculates were allowed a preincubation period of 24h at 37°C. for stabilization. Dilutions at twice the intended test concentrations were added at time zero in 100-µl aliquots to microtiter plate wells. Usually test compounds were evaluated at five 10-fold dilutions. The highest well concentration used in the test is 10^-4M. The cells are then incubated in the presence of drug (the test compound) for further 48h in 5% CO2 atmosphere and 100% humidity. At the end of this time, the adherent cells are fixed to the plate by means of trichloroacetic acid, and after a number of washes, the cell layer is treated with the protein stain Sulforhodamine B. The optical density which is proportional to protein mass, is then read by automated spectrophotometric plate readers at a wavelength of 515 nm. Readings are transferred to a microcomputer and final reports are generated using especially developed software.

H 460 = test: NCI in vitro 60 human tumor cell line assay; assay type: cell-based; settings: Homo sapiens, NCI-H460, 48 h, read-out: Total Growth Inhibition (TGI)
Description: as §3

HCC 2998 = test: NCI in vitro 60 human tumor cell line assay; assay type: cell-based; settings: Homo sapiens, HCC 2998, 48 h, read-out: Total Growth Inhibition (TGI)
Description: as §3

HCT 15 = test: NCI in vitro 60 human tumor cell line assay; assay type: cell-based; settings: HCT-15, 48 h, read-out: Total Growth Inhibition (TGI)
Description: as §3

HOP 62 = test: NCI in vitro 60 human tumor cell line assay; assay type: cell-based; settings: HOP-62, 48 h, read-out: Total Growth Inhibition (TGI)

| SMILES | MTD at 336 h ([1]; intravenous) | MTD at 336 h ([1]; ip, intraperitoneal) | solubility at 24 h [2] | solubility at 10 min [3] | AUC(0-t) (Pharmacokinetics at MTD) | Cmax (Pharmacokinetics at MTD) | Tmax (Pharmacokinetics at MTD) | half-life (Pharmacokinetics at MTD) | k el (Pharmacokinetics at MTD) | GI50 (ACHN) | GI50 (DU-145) | GI50 (HOP-62) | GI50 (MCF-7/ADR) | GI50 (OVCAR-8) | GI50 (SF-268) | GI50 (UACC-62) | IC (TGI) (HT 29) | IC (TGI) (H 460) | IC (TGI) (HCC 2998) | IC (TGI) (HCT 15) | other results |
| --- | --- | --- | --- | --- | --- | --- | --- | --- | --- | --- | --- | --- | --- | --- | --- | --- | --- | --- | --- | --- | --- |
| CC[C@@]1(O)C(=O)OCc2c1cc1n(c2=O)C(OCCO)c2cc3ccccc3nc2-1 (some centres unmarked) [Example 26, 5-(2'-Hydroxyethoxy)camptothecin] | 25 to 50 mg/kg | 200 mg/kg | 800 µg/mL (≈ 1.96 mM) | 6000 µg/mL (≈ 14.7 mM) | 562 ± 41.8 µM·h | 264 ± 21.9 µM | 1 h | 1.84 ± 0.3 h | 0.000106 s⁻¹ | > 100 µM | 50 µM | > 100 µM | > 100 µM | > 100 µM | > 100 µM | 0.075 µM | 46 µM | 1 µM | 10.5 µM | 36.3 µM |  |
| CC[C@@]1(O)C(=O)OCc2c1cc1n(c2=O)C(OCC(F)(F)F)c2cc3cc(O)ccc3nc2-1 (some centres unmarked) [Example 27, 10-Hydroxy-5-trifluoroethoxycamptothecin] | 200 mg/kg | 400 mg/kg | 500 µg/mL (≈ 1.08 mM) | 2000 to 3000 µg/mL (≈ 4.33 to 6.49 mM) | 23.1 ± 2.7 µM·h | 7.4 ± 0.8 µM | 1.33 ± 0.6 h | 2.38 ± 0.2 h | 8.06e-05 s⁻¹ | 8 µM | 0.35 µM | 2 µM | 60 µM | 75 µM | > 100 µM | 9 µM | 2.41 µM | 5.09 µM | 7.67 µM | 20 µM | IC (TGI) (HOP 62): 4.95 µM |
